Experimental data from ChEMBL document CHEMBL4818987, “Recent advances of podophyllotoxin/epipodophyllotoxin hybrids in anticancer activity, mode of action, and structure-activity relationship: An update (2010-2020)” (Eur J Med Chem, 2020).
pIC50: −log10 of the molar value.

Tests used:
BGC-823 [1] = experiment: Antiproliferative activity against human BGC-823 cells incubated for 48 hrs by MTT assay; format: functional, cell-based; details: BGC-823, 48 h
MCF7 [2] = experiment: Antiproliferative activity against human MCF7 cells incubated for 48 hrs by MTT assay; format: functional, cell-based; details: MCF7, 48 h
Huh-7 [3] = experiment: Potency index, ratio of etoposide IC50 to test compound IC50 for antiproliferative activity against human Huh-7 cells; format: functional
Huh-7 [4] = experiment: Antiproliferative activity against human Huh7 cells incubated for 48 hrs by MTT assay; format: functional, cell-based; details: Huh-7, 48 h
A549 [5] = experiment: Potency index, ratio of etoposide IC50 to test compound IC50 for antiproliferative activity against human A549 cells; format: functional
HeLa [6] = experiment: Potency index, ratio of etoposide IC50 to test compound IC50 for antiproliferative activity against human HeLa cells; format: functional
A549 [7] = experiment: Antiproliferative activity against human A549 cells incubated for 48 hrs by MTT assay; format: functional, cell-based; details: A549, 48 h
BGC-823 [8] = experiment: Potency index, ratio of etoposide IC50 to test compound IC50 for antiproliferative activity against human BGC-823 cells; format: functional
MCF7 [9] = experiment: Potency index, ratio of etoposide IC50 to test compound IC50 for antiproliferative activity against human MCF7 cells; format: functional
HeLa [10] = experiment: Antiproliferative activity against human HeLa cells incubated for 48 hrs by MTT assay; format: functional, cell-based
SMMC-7721 [11] = experiment: Antiproliferative activity against human SMMC-7721 cells; format: functional, cell-based
U-251 = experiment: Antiproliferative activity against human U251 cells; format: functional, cell-based
K562 [12] = experiment: Antiproliferative activity against human K562 cells; format: functional, cell-based
SK-BR-3 = experiment: Antiproliferative activity against human SK-BR-3 cells; format: functional, cell-based
L02 = experiment: Cytotoxicity against human HL7702 cells; format: cell-based
K562/Adr [13] = experiment: Antiproliferative activity against human K562/ADR cells; format: functional, cell-based
LNCaP = experiment: Antiproliferative activity against human LNCaP cells; format: functional, cell-based
[14] = Selectivity index, ratio of IC50 for human HFF cells to IC50 for human A549 cells; format: toxicity; details: pooled result: one value given for 20 cell lines, strains, targets or settings, read-out: Ratio IC50
HFF = experiment: Cytotoxicity against human HFF cells; format: cell-based
HCT-116 = experiment: Antiproliferative activity against human HCT116 cells; format: functional, cell-based
K562 [15] = experiment: Cytotoxicity against human K562 cells by SRB assay; format: functional, cell-based
K562/A02 [16] = experiment: Cytotoxicity against human K562/A02 cells by SRB assay; format: functional, cell-based
K562/A02 [17] = experiment: Potency index, ratio of doxorubicin IC50 to test compound IC50 for human K562/A02 cells; format: functional
K562/A02 [18] = experiment: Potency index, ratio of etoposide GI50 to test compound GI50 for human K562/A02 cells; format: functional
K562 [19] = experiment: Potency index, ratio of etoposide IC50 to test compound IC50 for human K562 cells; format: functional
HeLa [20] = experiment: Antiproliferative activity against human HeLa cells by MTT assay; format: functional, cell-based
[21] = Resistance index, ratio of IC50 for human K562/AO2 cells to IC50 for human K562 cells; format: functional
HeLa [22] = experiment: Potency index, ratio of etoposide IC50 to test compound IC50 for human HeLa cells; format: functional
K562 [23] = experiment: Antiproliferative activity against human K562 cells by MTT assay; format: functional, cell-based
K562/A02 [24] = experiment: Antiproliferative activity against human K562/A02 cells by MTT assay; format: functional, cell-based
SW480 = experiment: Antiproliferative activity against human SW480 cells incubated for 48 hrs by MTT assay; format: functional, cell-based; details: SW480, 48 h
CCRF S-180 = experiment: Antitumor activity against mouse S180 cells implanted in ICR mouse assessed as reduction in tumor weight at 20 mg/kg, ip administered everyday for 7 days relative to control; format: functional; set-up: scale not given: the % may be the effect or the level left; details: time 7 day
HL-60 = experiment: Antiproliferative activity against human HL-60 cells incubated for 48 hrs by MTT assay; format: functional, cell-based; details: HL-60, 48 h
SMMC-7721 [25] = experiment: Antiproliferative activity against human SMMC-7721 cells incubated for 48 hrs by MTT assay; format: functional, cell-based; details: SMMC-7721, 48 h
MGC-803 [26] = experiment: Antiproliferative activity against human MGC-803 cells incubated for 48 hrs by MTT assay; format: functional, cell-based; details: MGC-803, 48 h
K562/A02 [27] = experiment: Antiproliferative activity against human K562/A02 cells incubated for 48 hrs by MTT assay; format: functional, cell-based; details: K562/A02, 48 h
SK-OV-3 [28] = experiment: Antiproliferative activity against human SKOV3 cells incubated for 48 hrs by MTT assay; format: functional, cell-based; details: SK-OV-3, 48 h
K562/VCR [29] = experiment: Antiproliferative activity against human K562/VCR cells incubated for 72 hrs by CCK8 method; format: functional, cell-based
K562/Adr [30] = experiment: Antiproliferative activity against human K562/ADR cells incubated for 72 hrs by CCK8 method; format: functional, cell-based
K562 [31] = experiment: Antiproliferative activity against human K562 cells incubated for 72 hrs by CCK8 method; format: functional, cell-based; details: K562, 72 h
K562/VCR [32] = experiment: Potency index, ratio of etoposide IC50 to compound IC50 for antiproliferative activity against human K562/VCR cells; format: functional
K562/VCR [33] = experiment: Potency index, ratio of vincristine IC50 to compound IC50 for antiproliferative activity against human K562/VCR cells; format: functional
SK-OV-3 [34] = experiment: Potency index, ratio of etoposide IC50 to test compound IC50 for antiproliferative activity against human SK-OV-3 cells; format: functional
HepG2 = experiment: Potency index, ratio of etoposide IC50 to test compound IC50 for antiproliferative activity against human HepG2 cells; format: functional
MGC-803 [35] = experiment: Potency index, ratio of etoposide IC50 to test compound IC50 for antiproliferative activity against human MGC-803 cells; format: functional
K562 [36] = experiment: Potency index, ratio of etoposide IC50 to test compound IC50 for antiproliferative activity against human K562 cells; format: functional
K562/A02 [37] = experiment: Potency index, ratio of etoposide IC50 to test compound IC50 for antiproliferative activity against human K562/A02 cells; format: functional
K562/Adr [38] = experiment: Potency index, ratio of etoposide IC50 to test compound IC50 for antiproliferative activity against human K562/ADM cells; format: functional
K562 [39] = experiment: Antiproliferative activity against human K562 cells incubated for 48 hrs by MTT assay; format: functional, cell-based; details: K562, 48 h
K562/Adr [40] = experiment: Antiproliferative activity against human K562/ADM cells incubated for 48 hrs by MTT assay; format: functional, cell-based

With `COc1cc([C@@H]2c3cc4c(cc3[C@@H](Nc3ncccc3F)[C@H]3COC(=O)[C@H]23)OCO4)cc(OC)c1OC` the pIC50 (BGC-823 [1]) was 7.22, the pIC50 (MCF7 [2]) was 7.22 and the “Ratio IC50” value (Huh-7 [3]) was 3.3. For the same compound, the pIC50 (Huh-7 [4]) was 7.22, the “Ratio IC50” value (A549 [5]) was 3.3 and the “Ratio IC50” value (HeLa [6]) was 3.3. For the same compound, the pIC50 (A549 [7]) was 7.22, the “Ratio IC50” value (BGC-823 [8]) was 3.3 and the “Ratio IC50” value (MCF7 [9]) was 3.3. It also gave a pIC50 (HeLa [10]) of 7.22.

`COC(=O)c1ccc(-c2cn(CC(=O)O[C@H]3c4cc5c(cc4[C@@H](c4cc(OC)c(OC)c(OC)c4)[C@H]4C(=O)OC[C@@H]43)OCO5)nn2)cc1` gave a pIC50 (SMMC-7721 [11]) of 7.71, a pIC50 (U-251) of 7.71 and a pIC50 (K562 [12]) of 7.71. It also gave a pIC50 (SK-BR-3) of 7.71, a pIC50 (L02) of 6.25 and a pIC50 (K562/Adr [13]) of 7.71. For the same compound, the pIC50 (LNCaP) was 7.71, the selectivity ratio [14] was 3.5 and the pIC50 (HFF) was 6.71. It also gave a pIC50 (HCT-116) of 7.71.

For `COc1ccc2[nH]cc(C(=O)C(=O)N[C@@H]3c4cc5c(cc4[C@@H](c4cc(OC)c(OC)c(OC)c4)[C@H]4C(=O)OC[C@@H]43)OCO5)c2c1`, the GI50 (K562 [15]) was 1020 nM, the GI50 (K562/A02 [16]) was 3340 nM and the “Ratio IC50” value (K562/A02 [17]) was 4.2. For the same compound, the “Ratio IC50” value (K562/A02 [18]) was 4.2.

For `COc1cc([C@@H]2c3cc4c(cc3[C@@H](NCc3cc5ccccc5[nH]3)[C@H]3COC(=O)[C@H]23)OCO4)cc(OC)c1OC`, the “Ratio IC50” value (K562 [19]) was 1.7, the pIC50 (HeLa [20]) was 7.00 and the “Ratio IC50” value [21] was 1.97. The “Ratio IC50” value (HeLa [22]) was 1.7, the pIC50 (K562 [23]) was 7.00 and the “Ratio IC50” value (K562/A02 [18]) was 1.7. It also gave a pIC50 (K562/A02 [24]) of 5.65.

In the case of `COc1cc([C@@H]2c3cc4c(cc3[C@@H](OC(=O)CCCC[C@@H]3SC[C@@H]5NC(=O)N[C@@H]53)[C@H]3COC(=O)[C@H]23)OCO4)cc(OC)c1O`, the pIC50 (SW480) was 6.89, the pIC50 (MCF7 [2]) was 6.89 and the Activity (CCRF S-180) was 37.7%. For the same compound, the pIC50 (HL-60) was 6.89, the pIC50 (SMMC-7721 [25]) was 6.89 and the pIC50 (A549 [7]) was 6.89.

In the case of `COc1cc(C(=O)/C=C/c2ccc(F)cc2)ccc1OCc1cn([C@@H]2c3cc4c(cc3[C@@H](c3cc(OC)c(OC)c(OC)c3)[C@H]3C(=O)OC[C@@H]32)OCO4)nn1`, the pIC50 (MGC-803 [26]) was 6.28, the pIC50 (BGC-823 [1]) was 6.28 and the pIC50 (K562/A02 [27]) was 6.28. It also gave a pIC50 (SK-OV-3 [28]) of 6.28.

`COc1cc([C@@H]2c3cc4c(cc3[C@H](OC(=O)c3nn(Cc5cc(Cl)cc(Cl)c5)c5ccccc35)[C@H]3COC(=O)[C@H]23)OCO4)cc(OC)c1OC` showed a pIC50 (K562/VCR [29]) of 6.24, a pIC50 (K562/Adr [30]) of 6.25 and a pIC50 (K562 [31]) of 6.37. For the same compound, the “Ratio IC50” value (K562/VCR [32]) was 8.1 and the “Ratio IC50” value (K562/VCR [33]) was 8.1.

For `COc1cc([C@@H]2c3cc4c(cc3[C@@H](n3ccnc3)[C@H]3COC(=O)[C@H]23)OCO4)cc(OC)c1OC`, the “Ratio IC50” value (SK-OV-3 [34]) was 5.8, the “Ratio IC50” value (A549 [5]) was 5.8 and the “Ratio IC50” value (HepG2) was 5.8. For the same compound, the “Ratio IC50” value (MGC-803 [35]) was 5.8, the “Ratio IC50” value (HeLa [6]) was 5.8 and the “Ratio IC50” value (K562 [36]) was 5.8. The “Ratio IC50” value (BGC-823 [8]) was 5.8, the “Ratio IC50” value (MCF7 [9]) was 5.8 and the “Ratio IC50” value (K562/A02 [37]) was 5.8.

With `COc1cc([C@@H]2c3cc4c(cc3[C@@H](n3cnc([N+](=O)[O-])c3)[C@H]3COC(=O)[C@H]23)OCO4)cc(OC)c1O` the “Ratio IC50” value (K562/Adr [38]) was 18.4, the pIC50 (K562 [39]) was 5.38 and the pIC50 (K562/Adr [40]) was 5.38. The pIC50 (HeLa [10]) was 5.09.
